Reference: ChEMBL document CHEMBL3525970, “Glutaredoxin and thioredoxin can be involved in producing the pharmacologically active metabolite of a thienopyridine antiplatelet agent, prasugrel” (Drug Metab Dispos, 2011)

Assays:
Liver cytosol = assay: Drug metabolism in human liver cytosol treated with R-133490 at […] 0.05 mM after 5 mins by HPLC analysis in presence of dithiothreitol and 67 ug/ml anti-human thioredoxin antibody; assay type: ADME; details: 50 µM
[1] = Drug metabolism in potassium phosphate buffer treated with R-133490 at 1 uM after 1 to 10 mins by LC-MS/MS analysis in presence of human liver cytosol and glutathione; assay type: physicochemical
Liver microsome = assay: Drug metabolism in human liver microsomes treated with R-133490 at 1 uM after 1 to 10 mins by LC-MS/MS analysis in presence of human liver cytosol and glutathione; assay type: ADME
[2] = Drug metabolism in potassium phosphate buffer treated with R-133490 at 1 uM after 1 to 10 mins by LC-MS/MS analysis; assay type: physicochemical

Measured: Drug metabolism

O=C(O)/C=C1/CN(C(C(=O)C2CC2)c2ccccc2F)CCC1S (centres undefined) [R-138727]
metabolite_detected: all assays above
